Measurements taken from ChEMBL document CHEMBL1201862, “PubChem BioAssay data set” (2004).
One block for each molecule: values may come before it. Calls of active or inactive are those of the source.

Key:
[1] = target: T1, Carboxy-terminal domain RNA polymerase II polypeptide A small phosphatase 1 (Homo sapiens, UniProt Q9GZU7); assay: CTDSP1 inhibitors, concentration-response, biochemical, absorbance readout, ultra-high-throughput screen actives (AID 540297); assay type: functional
T1 sequence (Q9GZU7 whole entry): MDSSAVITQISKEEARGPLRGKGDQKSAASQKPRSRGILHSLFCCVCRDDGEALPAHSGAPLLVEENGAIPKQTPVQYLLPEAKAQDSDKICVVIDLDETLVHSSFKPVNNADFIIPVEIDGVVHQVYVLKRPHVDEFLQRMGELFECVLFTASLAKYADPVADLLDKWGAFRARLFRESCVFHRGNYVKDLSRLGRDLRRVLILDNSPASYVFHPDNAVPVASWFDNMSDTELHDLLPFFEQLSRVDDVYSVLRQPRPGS

[2] = activation of miR-122 Renilla sensor silencing – cell-based, Huh7 psiCHECK-miR122, Renilla luciferase, cherry-picked, dose response (AID 651956); assay type: functional;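 further: huh7 hepatoma cells stably carrying a psiCHECK-2 miR-122 sensor plasmid; renilla luciferase signal reporting endogenous miR-122 activity after 48 h compound exposure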
[3] = reduction of Shn3 3'UTR-driven luciferase in osteoblasts – cell-based, Clone20 osteoblasts, firefly luciferase, cherry-picked, dose response (AID 624132); assay type: functional;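 further: firefly luciferase luminescence from reporter carrying the Shn3 3'UTR in osteoblasts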
[4] = loss of viability in HepG2 cells – cell-based, CellTiter-Glo, cherry-picked, cytotoxicity control for Shn3 inhibitor project, dose response (AID 624134); assay type: functional
[5] = non-specific 3'UTR reporter inhibition in Clone20-Shn3RL – cell-based, Renilla luciferase, cherry-picked, counter-screen for Shn3 inhibitor project, dose response (AID 624133); assay type: functional
[6] = target: T2, Corticotropin-releasing factor receptor 2/Corticotropin-releasing factor-binding protein (Homo sapiens, UniProt P24387+Q13324); assay: activators of CRF receptor 2 with binding protein – uHTS hits, confirmation (AID 602473); assay type: functional; conditions: read-out: EC50_Mean
T2 sequence (Q13324 whole entry): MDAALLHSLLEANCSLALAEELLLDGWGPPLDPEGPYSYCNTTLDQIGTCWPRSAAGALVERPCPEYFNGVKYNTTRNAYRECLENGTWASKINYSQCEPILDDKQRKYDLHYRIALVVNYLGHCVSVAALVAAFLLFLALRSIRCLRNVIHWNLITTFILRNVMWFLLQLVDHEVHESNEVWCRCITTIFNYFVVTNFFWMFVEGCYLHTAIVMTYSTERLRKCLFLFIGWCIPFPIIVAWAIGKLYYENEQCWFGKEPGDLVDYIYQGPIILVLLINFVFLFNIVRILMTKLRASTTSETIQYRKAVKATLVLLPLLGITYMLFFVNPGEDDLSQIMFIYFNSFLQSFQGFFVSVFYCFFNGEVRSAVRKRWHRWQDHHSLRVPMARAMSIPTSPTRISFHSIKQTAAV
T2 sequence (P24387 whole entry): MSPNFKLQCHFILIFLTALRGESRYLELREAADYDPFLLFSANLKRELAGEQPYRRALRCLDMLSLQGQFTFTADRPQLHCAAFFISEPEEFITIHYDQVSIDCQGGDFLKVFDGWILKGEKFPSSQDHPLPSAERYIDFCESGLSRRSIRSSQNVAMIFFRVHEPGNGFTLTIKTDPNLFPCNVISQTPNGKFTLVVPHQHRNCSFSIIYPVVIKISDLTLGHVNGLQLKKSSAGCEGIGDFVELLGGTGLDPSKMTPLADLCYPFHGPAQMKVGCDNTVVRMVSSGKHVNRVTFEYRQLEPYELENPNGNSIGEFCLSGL

[7] = target: T2, Corticotropin-releasing factor receptor 2/Corticotropin-releasing factor-binding protein; assay: Dose Response confirmation of uHTS hits for small molecule antagonists of the CRF-binding protein and CRF-R2 receptor complex.; assay type: functional; conditions: read-out: IC50_Mean
[8] = target: T3, High affinity choline transporter 1 (Homo sapiens, UniProt Q9GZV3); assay: human choline transporter blockers, potency – cell-based, 5-point CRC, membrane potential dye, dose response (AID 504840); assay type: functional
T3 sequence (Q9GZV3 whole entry): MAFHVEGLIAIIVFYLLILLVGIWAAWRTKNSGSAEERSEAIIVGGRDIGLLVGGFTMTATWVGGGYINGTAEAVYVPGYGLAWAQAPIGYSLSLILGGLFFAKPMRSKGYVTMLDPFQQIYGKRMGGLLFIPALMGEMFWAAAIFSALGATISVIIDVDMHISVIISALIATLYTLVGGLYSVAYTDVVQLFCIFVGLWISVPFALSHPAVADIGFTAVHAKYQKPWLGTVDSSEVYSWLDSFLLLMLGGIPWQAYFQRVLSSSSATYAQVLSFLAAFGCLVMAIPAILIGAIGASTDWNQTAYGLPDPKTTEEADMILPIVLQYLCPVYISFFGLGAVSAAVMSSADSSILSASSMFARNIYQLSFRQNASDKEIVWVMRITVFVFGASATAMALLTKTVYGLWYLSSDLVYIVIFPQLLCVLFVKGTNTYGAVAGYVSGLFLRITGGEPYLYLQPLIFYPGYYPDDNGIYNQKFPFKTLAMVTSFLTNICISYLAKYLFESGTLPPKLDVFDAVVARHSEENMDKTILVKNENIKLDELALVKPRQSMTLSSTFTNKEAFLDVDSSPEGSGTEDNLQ

[9] = NIH-3T3 fibroblast cytotoxicity, dose response, cytotoxicity control, cell-based, fluorescence, Alamar Blue, secondary assay (AID 2327); assay type: functional;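 further: NIH-3T3 mouse fibroblasts cultured with fluconazole at 8 µg/mL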
[10] = fluconazole-exposed Candida albicans growth modulators – fluorescence, retest, confirmation (AID 2467); assay type: functional, cell-based
[11] = Trypanosoma cruzi growth suppression in host cells – NIH3T3 host cells, beta-gal luminescence, confirmation (AID 2044); assay type: functional, cell-based;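 further: intracellular parasites grown in NIH/3T3 mouse fibroblasts as host cells; luminescent beta-galactosidase reporter signal from transgenic T. cruzi replicating inside host cells; inhibitors lower the luminescence signal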
[12] = NIH3T3 cell viability loss – ATP luminescence, mouse fibroblasts, counter-screen, dose response (AID 2010); assay type: functional, cell-based;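 further: cells exposed to compound for about 90 hours before reading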
[13] = target: Cytochrome P450 2C19 (Homo sapiens, UniProt P33261); assay: Cytochrome panel assay with activity outcomes. Panel member name: p450-cyp2c19 Compounds with AC50 equal or less than 10 uM are considered active; assay type: functional; conditions: read-out: AC50
Cytochrome P450 2C19, sequence (P33261 whole entry): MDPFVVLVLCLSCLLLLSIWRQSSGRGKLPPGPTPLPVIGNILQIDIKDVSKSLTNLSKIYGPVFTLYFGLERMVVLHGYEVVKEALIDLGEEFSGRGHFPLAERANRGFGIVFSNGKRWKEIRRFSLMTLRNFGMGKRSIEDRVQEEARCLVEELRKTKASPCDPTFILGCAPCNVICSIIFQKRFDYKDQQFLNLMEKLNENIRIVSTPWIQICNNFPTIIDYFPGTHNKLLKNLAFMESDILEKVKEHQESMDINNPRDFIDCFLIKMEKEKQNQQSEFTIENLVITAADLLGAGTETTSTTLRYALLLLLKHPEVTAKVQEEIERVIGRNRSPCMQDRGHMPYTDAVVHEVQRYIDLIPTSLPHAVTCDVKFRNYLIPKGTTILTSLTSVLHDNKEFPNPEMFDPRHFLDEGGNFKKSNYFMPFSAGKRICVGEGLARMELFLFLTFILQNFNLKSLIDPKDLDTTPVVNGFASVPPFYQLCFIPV

[14] = target: Cytochrome P450 2C9 (Homo sapiens, UniProt P11712)
Cytochrome P450 2C9, sequence (P11712 whole entry): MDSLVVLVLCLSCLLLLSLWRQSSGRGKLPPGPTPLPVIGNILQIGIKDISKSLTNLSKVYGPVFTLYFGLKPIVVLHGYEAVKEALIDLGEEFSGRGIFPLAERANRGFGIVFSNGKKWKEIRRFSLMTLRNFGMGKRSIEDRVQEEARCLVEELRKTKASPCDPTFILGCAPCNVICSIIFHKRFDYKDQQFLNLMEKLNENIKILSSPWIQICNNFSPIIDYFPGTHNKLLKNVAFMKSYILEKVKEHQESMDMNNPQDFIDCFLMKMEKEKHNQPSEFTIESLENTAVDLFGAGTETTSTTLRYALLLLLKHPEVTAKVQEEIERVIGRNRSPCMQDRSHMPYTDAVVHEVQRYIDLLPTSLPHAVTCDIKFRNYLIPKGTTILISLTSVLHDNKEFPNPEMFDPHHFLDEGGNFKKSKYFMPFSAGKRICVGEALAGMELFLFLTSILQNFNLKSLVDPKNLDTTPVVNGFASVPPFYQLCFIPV

[15] = target: Cytochrome P450 2D6 (Homo sapiens, UniProt P10635);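 further: CYP2D6 member of a cytochrome P450 panel assay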
Cytochrome P450 2D6, sequence (P10635 whole entry): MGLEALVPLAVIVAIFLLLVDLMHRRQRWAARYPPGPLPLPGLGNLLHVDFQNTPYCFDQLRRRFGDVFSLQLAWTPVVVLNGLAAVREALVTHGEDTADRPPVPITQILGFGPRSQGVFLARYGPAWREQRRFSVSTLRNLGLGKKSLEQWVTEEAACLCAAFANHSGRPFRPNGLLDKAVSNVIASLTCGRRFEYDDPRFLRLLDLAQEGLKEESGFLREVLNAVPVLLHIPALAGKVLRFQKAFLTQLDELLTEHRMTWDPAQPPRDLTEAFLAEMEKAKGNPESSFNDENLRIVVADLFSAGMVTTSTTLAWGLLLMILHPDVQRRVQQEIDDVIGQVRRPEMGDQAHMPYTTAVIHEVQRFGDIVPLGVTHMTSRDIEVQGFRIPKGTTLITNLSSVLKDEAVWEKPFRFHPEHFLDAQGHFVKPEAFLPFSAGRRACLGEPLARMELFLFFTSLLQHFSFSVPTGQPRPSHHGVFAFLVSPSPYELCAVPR

[16] = target: Cytochrome P450 3A4 (Homo sapiens, UniProt P08684);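 further: CYP3A4 tested as one member of a cytochrome P450 panel screen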
Cytochrome P450 3A4, sequence (P08684 whole entry): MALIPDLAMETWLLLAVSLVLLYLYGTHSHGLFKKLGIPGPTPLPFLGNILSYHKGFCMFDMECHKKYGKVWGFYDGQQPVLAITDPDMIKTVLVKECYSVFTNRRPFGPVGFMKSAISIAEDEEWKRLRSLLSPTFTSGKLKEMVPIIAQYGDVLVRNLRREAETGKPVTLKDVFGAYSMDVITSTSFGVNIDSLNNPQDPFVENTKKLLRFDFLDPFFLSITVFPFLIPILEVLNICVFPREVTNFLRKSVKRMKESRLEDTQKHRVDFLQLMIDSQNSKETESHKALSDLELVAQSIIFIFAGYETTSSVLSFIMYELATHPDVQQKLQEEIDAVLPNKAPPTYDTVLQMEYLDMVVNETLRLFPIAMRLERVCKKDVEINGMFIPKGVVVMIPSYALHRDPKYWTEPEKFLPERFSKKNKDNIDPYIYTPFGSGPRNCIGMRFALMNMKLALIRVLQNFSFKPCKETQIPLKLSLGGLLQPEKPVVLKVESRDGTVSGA

[17] = target: T4, DNA repair protein RAD52 homolog (Homo sapiens, UniProt P43351); assay type: functional, biochemical
T4 sequence (P43351 whole entry): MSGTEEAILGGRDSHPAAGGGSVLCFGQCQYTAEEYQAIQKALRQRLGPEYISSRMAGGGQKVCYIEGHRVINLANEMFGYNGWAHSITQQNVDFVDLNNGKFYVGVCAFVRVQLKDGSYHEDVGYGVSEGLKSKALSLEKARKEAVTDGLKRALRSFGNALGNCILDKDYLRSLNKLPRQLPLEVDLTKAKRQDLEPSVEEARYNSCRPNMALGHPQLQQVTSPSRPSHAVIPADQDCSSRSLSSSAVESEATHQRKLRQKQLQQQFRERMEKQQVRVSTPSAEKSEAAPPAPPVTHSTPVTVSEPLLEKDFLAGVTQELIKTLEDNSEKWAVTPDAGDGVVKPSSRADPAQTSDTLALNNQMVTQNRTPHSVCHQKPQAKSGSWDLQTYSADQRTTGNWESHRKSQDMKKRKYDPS

IC50 [1]: 4.49 µM (active)
Structure (SMILES): Cc1ccc(Cl)cc1NC(=O)CSc1sc2c(O)cc(O)nc2c1C#N

EC50 [6]: > 53 µM (inactive)
IC50 [7]: > 47.1 µM (inactive)
Structure (SMILES): O=C(c1cccc(NS(=O)(=O)c2ccc(F)c(F)c2)c1)N1CCN(C(c2ccccc2)c2ccccc2)CC1

EC50 [6]: > 53 µM (inactive)
IC50 [7]: > 47.1 µM (inactive)
Structure (SMILES): CCCCN(C(=O)c1ccc2c(c1)S(=O)(=O)N=C1CCCCCN12)c1c(N)n(CCCC)c(=O)[nH]c1=O

IC50 [1]: 10.1 µM (active)
Structure (SMILES): O=[N+]([O-])c1ccc2nc(-c3ccccc3)n(OCc3ccc(Cl)cc3)c2c1

IC50 [1]: 10.8 µM (active)
Structure (SMILES): Cc1ccn2c(=O)nc(SCC(=O)NCc3ccco3)nc2c1

EC50 [6]: > 53 µM (inactive)
IC50 [7]: > 47.1 µM (inactive)
Structure (SMILES): COCCn1nnnc1C(c1ccccc1)N1CCN(c2ccccc2)CC1 (configuration not stated)

AC50 [13]: 20 µM (inconclusive)
AC50 [14]: 0.1 µM (inconclusive)
AC50 [15]: 20 µM (inconclusive)
AC50 [16]: 14.1 µM (inconclusive)
Structure (SMILES): O=C(CNC(=O)c1ccccc1)NCC(=O)OCc1ccc(Cl)cc1

AC50 [17]: 11.3 µM (active)
Structure (SMILES): Cc1cc(N2CCC(N(C)C3CCCC3)CC2)nc2cc(O)ccc12

IC50 [8]: 13.2 µM (active)
Structure (SMILES): Cc1csc(=N)n1CC(=O)N1CCc2ccccc21

Further lines, the molecule ahead of its results:

Structure (SMILES): Cc1ccc(-c2ccc3c(c2)O[C@H](CN(C)C(=O)CC2CC2)[C@H](C)CN([C@H](C)CO)S3(=O)=O)cc1
AC50 [2]: 10.7 µM (active)

Structure (SMILES): CC(C)C[C@@H](CN1CCCC1CN1C(=S)NC[C@@H]1Cc1ccc(O)cc1)N1C[C@H](Cc2ccc(O)cc2)N(CC2CCCCCC2)C1=S (some centres not stated)
AC50 [3]: 18.8 µM (active)
AC50 [4]: 22.7 µM (active)
AC50 [5]: 16.9 µM (active)

Structure (SMILES): N=C(N)SCc1ccccn1
IC50 [8]: 13.2 µM (active)

Structure (SMILES): Cc1ccc(C2CC2C(=O)NN=C(S)Nc2cccc(Cl)c2)cc1 (configuration not stated)
EC50 [9]: > 160 µM (inactive)
EC50 [10]: > 38 µM (not active)
IC50 [8]: 15.8 µM (active)

Structure (SMILES): C[C@@H]1CN([C@H](C)CO)S(=O)(=O)c2ccc(C3=CCCCC3)cc2O[C@@H]1CN(C)C(=O)Cc1ccncc1
AC50 [2]: 8.26 µM (active)

Structure (SMILES): CCOC(=O)N1CCN(C(=O)c2oc3ccc(S(=O)(=O)N4CCCCCC4)cc3c2C)CC1
EC50 [11]: 2.02 µM (active)
IC50 [8]: 13.2 µM (active)
EC50 [12]: > 60 µM (not active)

Structure (SMILES): O=C(CC(CC(=O)c1ccccc1)c1ccncc1)c1ccccc1
EC50 [6]: > 53 µM (inactive)
IC50 [7]: > 47.1 µM (inactive)

Structure (SMILES): CN1C(=O)c2cc(NS(=O)(=O)c3ccc(Cl)cc3)ccc2OC[C@H]2O[C@H](CC(=O)N3CCc4ccccc4C3)CC[C@@H]21
AC50 [2]: 14.8 µM (active)

Structure (SMILES): CSc1ccc(/C=N/NC(=O)c2cccc(Cl)c2)cc1
IC50 [1]: 13.4 µM (active)

Structure (SMILES): C[C@@H]1CN([C@@H](C)CO)C(=O)c2cc(NC(=O)Nc3cccc4ccccc34)ccc2O[C@@H](C)CCCCO[C@H]1CN(C)CC1CCCCC1
AC50 [2]: 8.95 µM (active)
